# Reference: US20080306114A1, “Human G Protein-Coupled Receptor and Modulators Thereof for the Treatment of Hyperglycemia and Related Disorders” (Arena Pharmaceuticals, Inc, priority 2004, published 2008)
# “Also recorded” adds a separate entry of the source.
# Tests used:
# [1] = system: Mock transfected HEK293 cells (empty pCMV vector); test: Whole-cell cyclase Flashplate cAMP assay, Mock transfected HEK293 cells; type: cell-based, human; details: serially diluted compound, 1 hour
# Experimental: (§1) HEK 293 cells obtained from ATCC were used for all assays. Culture media consisted of […] of DMEM supplemented with 10% fetal bovine serum (Gibco, BRL). Cyclic AMP measurements were determined using the Adenylyl Cyclase Activation Flashplate® Assay with direct cAMP [^125I] Detection system.
# (§2) HEK 293 cells (5×10^5 cells/ml) were plated in 15 cm dishes. […] Briefly, transfection mixture consisting of OptiMEM (Gibco, BRL) and FuGENE 6 reagent were mixed together and allow to incubate for 5 minutes at room temperature. Transfection reagent was added drop-wise into a separate tube containing 2 μg of endogenous human RUP43 receptor plasmid (Tranfected) or 2 μg of empty pCMV vector (Mock) and allowed to incubate for 15 minutes at room temperature. The DNA/transfection mixture was added drop-wise to each perspective plate and incubated over night in a humidified incubator maintained at 37° C., 95/5% […]. The next day, the media was replaced with normal growth media and the cells were incubated over night.
# (§3) On Day 3, the cells were rinsed once with PBS and dislodged from the plate using a nonenzymatic cell-dissociation buffer (Gibco, BRL) and resuspended in assay stimulation Buffer® Perkin Elmer) at a density of 2×10^6 cell/ml for measurement of cAMP. […] At the end of the 2 hour incubation, the plate was aspirated and cAMP levels were determined using Wallac 1450 microbeta counter.
# endogenous human RUP43 [2] = biological target: T1, endogenous human RUP43 (Homo sapiens, UniProt Q8TDU6); test: Whole-cell cyclase Flashplate cAMP assay, RUP43-transfected HEK293 cells; type: cell-based; parameters: expressed in transfected cells; host or cells: HEK293 cells (ATCC), transient transfection with FuGENE 6
# T1 sequence (Q8TDU6 1-330): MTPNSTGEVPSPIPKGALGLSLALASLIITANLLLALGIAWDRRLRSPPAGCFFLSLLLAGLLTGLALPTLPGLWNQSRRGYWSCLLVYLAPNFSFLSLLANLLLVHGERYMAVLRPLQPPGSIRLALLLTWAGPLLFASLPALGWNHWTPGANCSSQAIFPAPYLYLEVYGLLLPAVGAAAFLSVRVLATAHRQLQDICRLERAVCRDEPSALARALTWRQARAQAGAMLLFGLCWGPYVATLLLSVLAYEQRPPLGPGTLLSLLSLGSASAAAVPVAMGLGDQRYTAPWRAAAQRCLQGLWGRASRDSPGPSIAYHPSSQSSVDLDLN
# Experimental: as §1, §2, §3
# primary human adipocytes = test: In vitro glucose uptake assay in primary human adipocytes; type: cell-based; details: 50 μM for 3 hr
# Experimental: (§4) The in vitro glucose uptake assay was carried out as described here.
# (§5) KRPH buffer: 5 mM NaHPO4, pH 7.4 (Make KRPH buffer fresh each time) • 20 mM Hepes, pH 7.4 • 1 mM MgSO4 • 1 mM CaCl2 • 136 mM NaCl • 4.7 mM KCl • 1% BSA
# (§6) For each well, add 1 μl containing 1 μCi [^3H]-2-DOG and 1 μl cold stock 2-DOG and 2 ml KRPH.
# (§7) Use CytoB at 10 μM final to block carrier-mediated uptake. Also use this concentration at the end to stop the reaction. The stop buffer is PBS plus 10 μm CytoB (“PBS”).
# (§8) 1. Starve cells for at least 2 hrs.
# (§9) 2. Wash cells 2 times with KRPH buffer and add 2 mls of KRPH to the well.
# (§10) 3. Treat cells with insulin and/or with test compound, or with vehicle (Control), for 20 min.
# (§11) 4. After 20 min, aspirate the buffer from the well and immediately add 1 ml of KRPH buffer plus 2-DOG. For CytoB-treated cells, add CytoB 5 min before uptake assay.
# (§12) 5. After 4 min, aspirate the buffer from the well and add 3 mls of cold PBS. After completing the assay, wash the cells in each well 2 times with cold PBS. Aspirate the Stop PBS completely, and then add 700 ul of 1% Triton X. Place in 37° C. incubator for 30 min.
# (§13) 6. Count CPM in total lysate. Calculate CPM/well.
# (§14) Subtract the CytoB value from the value obtained for each of cells treated with insulin and/or with test compound and cells treated with vehicle (Control).
# Human preadipocytes (Cambrex) were differentiated into adipocytes. The differentiated primary human adipocytes were treated with or without 50 μM Compound 2 for 3 hr in serum-free medium. The human adipocytes were then washed with fresh KRPH buffer twice and treated with or without 100 nM insulin for 20 min. After treatment with or without insulin, glucose uptake was determined according to Example 17.
# [3] = system: primary human skeletal muscle cells; test: In vitro glucose uptake assay in primary human skeletal muscle cells; type: cell-based
# Experimental: as §4, §5, §6, §7, §8, §9, §10, §11, §12, §13, §14
# Primary human skeletal muscle cells obtained from Cambrex were grown to 50% confluence and then differentiated on culture with inducing medium for 5 to 7 days. The differentiated primary human skeletal muscle cells were then transferred to growth medium for 7 to 10 days.
# Differentiated human skeletal muscle cells were treated with or without various concentrations of Compound 2 in serum-free medium for 3 hr. After treatment with or without Compound 2, the cells were washed twice with fresh KRPH buffer. […] After treatment with or without insulin, glucose uptake was determined according to Example 17. […]
# Differentiated human skeletal muscle cells were treated with 50 μM Compound 2 for various time periods. At the end of each treatment period, glucose uptake was determined according to Example 17.
# mouse 3T3L1 adipocytes = test: In vitro glucose uptake assay in 3T3L1 adipocytes; type: cell-based
# Experimental: as §4, §5, §6, §7, §8, §9, §10, §11
# 5. After 4 min, aspirate the buffer from the well and add 3 mls of cold PBS. After completing the assay, wash the cells in each well 2 times with cold PBS. […]
# Differentiated mouse 3T3L1 adipocytes were treated with 50 μM Compound 2 for various times, after which glucose uptake was determined according to Example 17.
# Differentiated mouse 3T3L1 adipocytes were treated with (“Compound 2”) or without (“Control”) Compound 2 in serum-free medium for 3 hr. […] After treatment with insulin, glucose uptake was determined according to Example 17.
# rat L6 myoblast cells = test: In vitro glucose uptake assay in L6 myoblast cells; type: cell-based
# Experimental: as §4, §5, §6, §7, §8, §9, §10, §11, §12, §13, §14
# Rat skeletal muscle L6 myoblast cells were obtained from ATCC and grown in 24-well plates to confluence.
# Confluent L6 cells were treated with or without various concentrations of Compound 2 in serum-free medium for 3 hr. The L6 cells were then washed twice with KRPH buffer. L6 cells which had been treated with Compound 2 were incubated with KRPH buffer for 20 min; L6 cells which had not been treated with Compound 2 were treated with 10 nM or 100 nM insulin for 20 min. After treatment with or without insulin, glucose uptake was determined according to Example 17. […] As skeletal muscle cells are responsible for 80% of glucose disposal in vivo, the results obtained indicate that RUP43 agonist is an attractive candidate for providing better glucose disposal in vivo than does insulin.
# Confluent L6 myoblast cells were treated with 50 μM Compound 2 for various times. At the end of each treatment period, glucose uptake was determined according to Example 17.
# Confluent rat L6 myoblast cells were treated with or without 50 μM Compound 2 for 3 hr in serum-free medium. The L6 cells were then washed twice with fresh KRPH buffer. The L6 cells were then treated with or without 100 nM insulin for 20 min. After treatment with or without insulin, glucose uptake was determined according to Example 17. […] The results further indicate that RUP43 agonist can increase insulin efficacy, thereby lowering the concentration of insulin required to achieve maximal glucose uptake. […]
# endogenous human RUP43 [4] = biological target: T1, endogenous human RUP43; test: Melanophore assay; type: cell-based; parameters: expressed in transfected cells; host or cells: melanophores (skin cells of lower vertebrates), transfected by electroporation
# Text: Melanophores are skin cells found in lower vertebrates. They contain pigmented organelles termed melanosomes. Melanophores are able to redistribute these melanosomes along a microtubule network upon G-protein coupled receptor (GPCR) activation. The result of this pigment movement is an apparent lightening or darkening of the cells. In melanophores, the decreased levels of intracellular cAMP that result from activation of a […] receptor cause melanosomes to migrate to the center of the cell, resulting in a dramatic lightening in color. If cAMP levels are then raised, following activation of a Gs-coupled receptor, the melanosomes are re-dispersed and the cells appear dark again. The increased levels of diacylglycerol that result from activation of Gq-coupled receptors can also induce this re-dispersion. In addition, the technology is also suited to the study of certain receptor tyrosine kinases. The response of the melanophores takes place within minutes of receptor activation and results in a simple, robust color change. The response can be easily detected using a conventional absorbance microplate reader or a modest video imaging system. Unlike other skin cells, the melanophores derive from the neural crest and appear to express a full complement of signaling proteins. In particular, the cells express an extremely wide range of G-proteins and so are able to functionally express almost all GPCRs.
# Melanophores can be utilized to identify compounds, including natural ligands, against GPCRs. This method can be conducted by introducing test cells of a pigment cell line capable of dispersing or aggregating their pigment in response to a specific stimulus and expressing an exogenous clone coding for the GCPR. A stimulant, e.g., melatonin, sets an initial state of pigment disposition wherein the pigment is aggregated within the test cells if activation of the GPCR induces pigment dispersion. […] The test cells are then contacted with chemical compounds, and it is determined whether the pigment disposition in the cells changed from the initial state of pigment disposition. […]
# [5] = various concentrations 3 hr vs 10 nM or 100 nM insulin 20 min
"agonist of RUP43 (identification) (endogenous human RUP43 [2]; whole-cell cAMP, HEK293 transfected with endogenous human RUP43)",agonist of RUP43 (identification) (endogenous human RUP43 [4]; melanophore technology),"EC50 (endogenous human RUP43 [4]; melanophores transfected with endogenous human RUP43, 100 uM-51.2 pM, one hour) [nM]",Curve height (endogenous human RUP43 [4]; percent control response vs positive control wells (200) and negative control wells (100)),Structure (SMILES),intracellular cAMP [1],"intracellular cAMP (endogenous human RUP43 [2]; HEK293 cells transfected with endogenous human RUP43, serially diluted compound, 1 hour)",level of stimulated glucose uptake compared with insulin (primary human adipocytes; absence of insulin vs 100 nM insulin),insulin-stimulated glucose uptake (primary human adipocytes; then 100 nM insulin 20 min),glucose uptake (primary human adipocytes; without insulin),time course of glucose uptake ([3]; 50 μM for various time periods),"glucose uptake compared with insulin [3, 5]","glucose uptake ([3]; various concentrations for 3 hr, absence of insulin)","glucose uptake (mouse 3T3L1 adipocytes; 50 μM Compound 2 for various times, no insulin)","insulin-stimulated glucose uptake (mouse 3T3L1 adipocytes; compound 3 hr in serum-free medium, then various concentrations of insulin 20 min)","insulin-stimulated glucose uptake (rat L6 myoblast cells; 50 μM for 3 hr, then 100 nM insulin 20 min)",time to stimulation of glucose uptake (rat L6 myoblast cells; 50 μM for various times) [min],glucose uptake compared with insulin (rat L6 myoblast cells; [5]),"glucose uptake (rat L6 myoblast cells; various concentrations for 3 hr, no insulin)"
agonist of RUP43,–,–,–,"CN(C(=O)c1csc(C2CCN(C(=O)Cc3ccccc3Cl)CC2)n1)c1c2c(nn1C)CCCC2 [Compound 1, 2-{1-[2-(2-Chloro-phenyl)-acetyl]-piperidin-4-yl}-thiazole-4-carboxylicacid methyl-(2-methyl-4,5,6,7-tetrahydro-2H-indazol-3-yl)-amide]",not in Mock transfected cells,"in a dose dependent manner, led to an increase in intracellular cAMP",–,–,–,–,–,–,–,–,–,–,–,–
–,agonist of endogenous human RUP43,212,approximately 92 % of control,"O=C(Cc1ccccc1Cl)N1CCC(c2nc(C(=O)N3CCCc4ccccc43)cs2)CC1 [Compound 2, 2-(2-Chloro-phenyl)-1-{4-[4-(3,4-dihydro-2H-quinoline-1-carbonyl)-thiazol-2-yl]-piperidin-1-yl}-ethanone]",–,–,comparable to the level of insulin-stimulated glucose uptake,enhanced insulin-stimulated glucose uptake,stimulates glucose uptake,rapid stimulation of glucose uptake,more effectively than insulin,efficacious at stimulating glucose uptake; also recorded: stimulates glucose uptake,stimulates glucose uptake,enhances insulin-stimulated glucose uptake,enhances insulin-stimulated glucose uptake,≤ 20,greater glucose uptake in rat L6 myoblast than did insulin,stimulates glucose uptake
